In ChEMBL document CHEMBL1131299 (J Med Chem, 1998):

Key:
Progesterone receptor [1] = target: T1, Progesterone receptor (Homo sapiens, UniProt P06401); test: Agonistic activity was measured for modulation of hPR-B (human progesterone receptor) in co-transfected CV-1 cells.; assay type: functional, cell-based
T1 sequence (P06401 whole entry): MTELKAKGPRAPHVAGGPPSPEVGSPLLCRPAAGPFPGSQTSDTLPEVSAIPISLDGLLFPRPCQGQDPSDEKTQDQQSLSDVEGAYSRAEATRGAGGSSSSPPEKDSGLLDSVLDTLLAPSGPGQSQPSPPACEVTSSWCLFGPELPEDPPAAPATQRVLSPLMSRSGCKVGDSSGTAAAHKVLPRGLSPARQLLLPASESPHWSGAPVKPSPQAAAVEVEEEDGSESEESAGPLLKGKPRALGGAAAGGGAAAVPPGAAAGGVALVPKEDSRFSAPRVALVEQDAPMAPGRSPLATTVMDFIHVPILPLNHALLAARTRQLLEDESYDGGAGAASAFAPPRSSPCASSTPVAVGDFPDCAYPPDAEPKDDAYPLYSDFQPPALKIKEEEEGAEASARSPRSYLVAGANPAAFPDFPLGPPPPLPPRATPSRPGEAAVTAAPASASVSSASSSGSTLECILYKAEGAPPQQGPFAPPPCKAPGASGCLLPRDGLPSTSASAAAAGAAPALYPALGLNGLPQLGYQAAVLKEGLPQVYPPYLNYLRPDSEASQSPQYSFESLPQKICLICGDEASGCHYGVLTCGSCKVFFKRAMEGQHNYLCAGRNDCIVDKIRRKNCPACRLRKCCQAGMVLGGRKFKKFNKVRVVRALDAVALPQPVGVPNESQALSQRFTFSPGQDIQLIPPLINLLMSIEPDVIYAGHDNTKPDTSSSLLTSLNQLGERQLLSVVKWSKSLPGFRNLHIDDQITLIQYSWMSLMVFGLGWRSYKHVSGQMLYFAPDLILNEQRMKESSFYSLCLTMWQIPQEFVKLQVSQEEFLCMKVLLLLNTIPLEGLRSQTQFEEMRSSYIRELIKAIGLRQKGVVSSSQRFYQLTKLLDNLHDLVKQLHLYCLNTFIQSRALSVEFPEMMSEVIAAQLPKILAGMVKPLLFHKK

Progesterone receptor [2] = target: T1, Progesterone receptor; test: The binding affinity measured using baculovirus-expressed hPR-A in sf21 cells.
Rattus norvegicus = organism: Rattus norvegicus; test: Compound was Dawley rats expressed as response to MPA at […]; assay type: functional

| EC50 (Progesterone receptor [1]) | Ki (Progesterone receptor [2]) | SMILES | Efficacy (Rattus norvegicus) |
| --- | --- | --- | --- |
| 3.6 nM | 0.48 nM | CC1=CC(C)(C)Nc2ccc3c(c21)C(c1cccc(Cl)c1)Oc1ccc(Cl)cc1-3 (stereo not drawn) | – |
| 9.5 nM | 1.3 nM | CC1=CC(C)(C)Nc2ccc3c(c21)C(c1ccc(F)c(C)c1)Oc1ccc(Cl)cc1-3 (stereo not drawn) | – |
| 270 nM | 2.7 nM | COc1ccc(C2Oc3ccc(F)cc3-c3ccc4c(c32)C(C)=CC(C)(C)N4)cc1 (stereo not drawn) | – |
| 8.1 nM | 0.32 nM | CC1=CC(C)(C)Nc2ccc3c(c21)C(c1ccc(Cl)cc1)Oc1ccc(F)cc1-3 (stereo not drawn) | 116% |
| 3.1 nM | 2.4 nM | COc1ccc2c(c1)-c1ccc3c(c1C(c1ccc(Cl)cc1)O2)C(C)=CC(C)(C)N3 (stereo not drawn) | – |
| 10 nM | 2.7 nM | CC1=CC(C)(C)Nc2ccc3c(c21)C(c1ccc(Cl)cc1)Oc1cc(F)ccc1-3 (stereo not drawn) | – |
| 15 nM | – | CC1=CC(C)(C)Nc2ccc3c(c21)C(c1ccc(Cl)cc1)Oc1ccccc1-3 (stereo not drawn) | – |
| 6.9 nM | 0.74 nM | CC1=CC(C)(C)Nc2ccc3c(c21)C(c1ccccc1)Oc1ccc(Cl)cc1-3 (stereo not drawn) | – |
| 7.1 nM | 0.55 nM | CC1=CC(C)(C)Nc2ccc3c(c21)C(c1cccc(C)c1)Oc1ccc(Cl)cc1-3 (stereo not drawn) | – |
| 5 nM | 0.37 nM | CC1=CC(C)(C)Nc2ccc3c(c21)C(c1cccc(C)c1)Oc1ccc(F)cc1-3 (stereo not drawn) | – |
| 13 nM | 0.93 nM | COc1ccc(C2Oc3ccc(Cl)cc3-c3ccc4c(c32)C(C)=CC(C)(C)N4)cc1 (stereo not drawn) | – |
| 3.7 nM | 0.34 nM | CC1=CC(C)(C)Nc2ccc3c(c21)C(c1cccc(F)c1)Oc1ccc(Cl)cc1-3 (stereo not drawn) | – |
| 9 nM | 0.59 nM | CC1=CC(C)(C)Nc2ccc3c(c21)C(c1ccc(Cl)cc1)Oc1ccc(Cl)cc1-3 (stereo not drawn) | 108% |
| 5.2 nM | 0.59 nM | CC1=CC(C)(C)Nc2ccc3c(c21)C(c1ccc(Br)cc1)Oc1ccc(Cl)cc1-3 (stereo not drawn) | 60% |
| 2.8 nM | 0.32 nM | CC1=CC(C)(C)Nc2ccc3c(c21)C(c1cccc(Cl)c1)Oc1ccc(F)cc1-3 (stereo not drawn) | – |
| 10 nM | 0.78 nM | CC1=CC(C)(C)Nc2ccc3c(c21)C(c1cccc(C(F)(F)F)c1)Oc1ccc(F)cc1-3 (stereo not drawn) | – |
| – | 1.1 nM | CC1=CC(C)(C)Nc2ccc3c(c21)C(c1cccc(C(F)(F)F)c1)Oc1ccc(Cl)cc1-3 (stereo not drawn) | – |
| 2.7 nM | 0.49 nM | CC1=CC(C)(C)Nc2ccc3c(c21)C(c1ccc(Cl)c(C)c1)Oc1ccc(F)cc1-3 (stereo not drawn) | – |
| – | 0.5 nM | CC1=CC(C)(C)Nc2ccc3c(c21)C(c1ccc(Cl)c(C)c1)Oc1ccc(Cl)cc1-3 (stereo not drawn) | – |
| – | – | CC(=O)O[C@]1(C(C)=O)CC[C@H]2[C@@H]3C[C@H](C)C4=CC(=O)CC[C@]4(C)[C@H]3CC[C@@]21C [MEDROXYPROGESTERONE ACETATE] | 100% |

| SMILES | EC50 (Progesterone receptor [1]) | Ki (Progesterone receptor [2]) | Efficacy (Rattus norvegicus) |
| --- | --- | --- | --- |
| CC1=CC(C)(C)Nc2ccc3c(c21)C(c1ccccc1)Oc1ccc(F)cc1-3 (stereo not drawn) | 7.4 nM | 2.2 nM | – |
| CC1=CC(C)(C)Nc2ccc3c(c21)C(c1ccc(F)c(C)c1)Oc1ccc(F)cc1-3 (stereo not drawn) | 15 nM | 1.3 nM | – |
